Measurements: patent US20220039395A1, “INSECT CONTROL AGENTS” (priority 2018, published 2022)
Entries after “also recorded” stand apart in the source; their conditions may differ. Numbered stars: 1 amine (or outer) side, 2 acyl side, 3 side chain; on linkers, the order of the positions; unused ones are H or OH. Square brackets hold non-standard residues; d marks the D form. Ends that are not written are not given here. Suc = O=C(CCC(=O)[*:2])[*:1]; β3hL = CC(C)C[C@H](N)CC(=O)O; 2Abf = not defined here

Columns and labels:
Aphids = assay: Feeding with peptides in artificial diet, mortality without other stress; type: in vivo, Myzus persicae; details: for effect on mortality in the absence of additional stressors: no additional stress conditions
Description: A standard artificial diet for M. persicae was produced as described in Van Emden (2009) and provided the basal diet to which neuropeptide analogues were added for screening purposes. Neuropeptide analogues were diluted individually in the artificial diet to a pre-determined recommended concentration as follows: 1895 (3.5×10^−5 M) and 2019 (2.0×10^−5 M).
Feeding apparatus were constructed using a set-up developed by Sadeghi et al (2009). For this, a piece of Parafilm was stretched over a Plexiglas ring (h=4 cm, Ø=3 cm) and 100 μl of the artificial diet containing the desired neuropeptide analogue was pipette onto the Parafilm membrane. A second piece of Parafilm, stretched to 4 times the original thickness, was stretched over the original layer, sandwiching the artificial diet between two layers of Parafilm. A strip of Parafilm was wrapped around the circumference of the Plexiglas ring, sealing in the diet. A plastic ring (h=1.2 cm, Ø=3.4 cm) was subsequently placed over the Parafilm layer, creating a walled chamber in which to house test aphids in contact with the Parafilm layer containing the artificial diet. Finally, a small Petri dish (h=1 cm, Ø=3.6 cm), modified for ventilation with net cloth, was placed on top of each feeding apparatus to prevent aphid escape.
To obtain aphids for use in experiments, reproducing anholocyclic adults were placed on individual excised leaves of Chinese cabbage at densities of 5 adults per leaf and allowed to reproduce for 24 h. The stem of each excised leaf was held within a 0.5 mL Eppendorf tube containing water via a punctured hole in the Eppendorf lid, and placed individually within a microcage (L=4 cm, Ø=9.5 cm). Following 24 h, adults were removed and resultant first instar nymphs (<1 day old and synchronised in age to within 24 h) retained. Nymphs were allowed to develop on the Chinese cabbage for 5 days. On day 5, (3rd instar) nymphs were transferred onto the artificial diet containing a neuropeptide analogue at densities of 1 per feeding chamber and monitored daily until death. Aphids were transferred to fresh artificial diet (containing neuropeptide analogue) every 5 days. Life history traits recorded include age at first reproduction, number of nymphs produced per 24 h period, and lifespan. From these parameters, lifetime fecundity and daily fecundity were calculated. Control groups were set up involving aphids reared on the host plant, an artificial diet without a neuropeptide analogue, and an artificial diet containing the native CAPA neuropeptide.
Aphids were reared on artificial diet, alone or supplemented with peptide 2129, 2315, 2316 or 2320. A control group (no test peptide) was reared on a host plant. No other stress conditions were applied.
For peptides 2315, 2316 and 2320, mortality was assessed at 48, 72, 96, 120 and 144 hours. A group of 9 or 10 insects was used for each time point, and all experiments were performed at least 4 times.

Macrosiphum rosae = assay: Desiccation/starvation tolerance assay after peptide microinjection; type: in vivo; details: Macrosiphum rosae, microinjection; for Documented effect on desiccation/starvation mortality: final concentration ×10^−5 M, relative to vehicle control; for LTime50 (h), test / Median IQR survival (h), test: ×10^−5 M, desiccation and starvation stress, test group
Description: (§1) Neuropeptides were administered to test aphids via microinjection to allow for rapid mass screening of neuropeptide analogue efficacy. For this, native neuropeptides were diluted in double distilled water (DDH2O) to a concentration of 1×10^−5 M. Neuropeptide analogues were diluted in DDH2O to the following concentrations: kinin analogues 1728 (2.5×10^−5 M), 2139 (3.5×10^−5 M), 2139-Ac (3.5×10^−5 M); CAP2b analogues 1895 (3.5×10^−5 M), 1896 (3.5×10^−5 M), 1902 (3.5×10^−5 M), 2089 (3.9×10^−5 M), 2123 (1.0×10^−5 M), 2125 (1.0×10^−5 M), 2129 (2.0×10^−5 M). Once at the desired concentration, neuropeptide solutions were administered to test aphids at an injection volume of 9 nl based on total haemolymph volume, to produce an approximate 1:20 dilution of injection volume to haemolymph. Injections were performed using a pulled glass needle and a Nanoject II Auto-Nanoliter Injector (Drummond Scientific Company, Broomall, Pa.). A vehicle control was set up for each treatment/day of experiments to account for variation in needle pulling. For this, control aphids were injected with 9 nl of DDH2O and subsequently exposed to the same experiments as aphids receiving the neuropeptide treatment. Neuropeptide treated and vehicle control aphids were subsequently used in the stress bioassays detailed below.
(§2) Anholocyclic adults of mixed age of either M. persicae or M. rosae were selected from the stock cultures and treated with a native neuropeptide or neuropeptide analogue via microinjection using the method detailed above. Treated and vehicle control aphids were allowed to recover on excised leaves of the host plant for 1 h before being placed in an empty ventilated microcage (L=4 cm, 0=9.5 cm) at densities of 10 per cage. In total, 30-40 aphids were treated for each neuropeptide treatment group and a further 30-40 for the associated vehicle control group. From the point of placement in the microcage (taken as 0 h), aphid survival was checked every hour during daylight hours and approximately every 4 h during night-time hours until the final aphid died. Survival data were subsequently analysed using a Log-rank (Mantel-Cox) text in GraphPad Prism version 7.0. LTime50 (the time taken to kill 50% of the test population) values were calculated via Probit Analysis in Minitab 17 (Minitab Inc., State College, Pa.).

Myzus persicae [1] = assay: as above; type: in vivo; details: Myzus persicae, microinjection; for Documented effect on desiccation/starvation mortality: final concentration ×10^−5 M, relative to vehicle control; for LTime50 (h), test / Median ± IQR survival (h), test: ×10^−5 M, desiccation and starvation stress, test group
Description: as §1, §2

Myzus persicae [2] = assay: Feeding of aphids with peptides in artificial diet; life span and fecundity; type: in vivo; details: M. persicae on artificial diet containing the peptide; mean ± SE
Description: A standard artificial diet for M. persicae was produced as described in Van Emden (2009) and provided the basal diet to which neuropeptide analogues were added for screening purposes. Neuropeptide analogues were diluted individually in the artificial diet to a pre-determined recommended concentration as follows: 1895 (3.5×10^-5 M) and 2019 (2.0×10^-5 M). Feeding apparatus were constructed using a set-up developed by […] et al (2009). For this, a piece of Parafilm was stretched over a Plexiglas ring (h=4 cm, Ø=3 cm) and 100 μl of the artificial diet containing the desired neuropeptide analogue was pipette onto the Parafilm membrane. A second piece of Parafilm, stretched to 4 times the original thickness, was stretched over the original layer, sandwiching the artificial diet between two layers of Parafilm. A strip of Parafilm was wrapped around the circumference of the Plexiglas ring, sealing in the diet. A plastic ring (h=1.2 cm, Ø=3.4 cm) was subsequently placed over the Parafilm layer, creating a walled chamber in which to house test aphids in contact with the Parafilm layer containing the artificial diet. Finally, a small Petri dish (h=1 cm, Ø=3.6 cm), modified for ventilation with net cloth, was placed on top of each feeding apparatus to prevent aphid escape. To obtain aphids for use in experiments, reproducing anholocyclic adults were placed on individual excised leaves of Chinese cabbage at densities of 5 adults per leaf and allowed to reproduce for 24 h. The stem of each excised leaf was held within a 0.5 mL Eppendorf tube containing water via a punctured hole in the Eppendorf lid, and placed individually within a microcage (L=4 cm, Ø=9.5 cm). Following 24 h, adults were removed and resultant first instar nymphs (<1 day old and synchronised in age to within 24 h) retained. Nymphs were allowed to develop on the Chinese cabbage for 5 days. On day 5, (3rd instar) nymphs were transferred onto the artificial diet containing a neuropeptide analogue at densities of 1 per feeding chamber and monitored daily until death. Aphids were transferred to fresh artificial diet (containing neuropeptide analogue) every 5 days. Life history traits recorded include age at first reproduction, number of nymphs produced per 24 h period, and lifespan. From these parameters, lifetime fecundity and daily fecundity were calculated. Control groups were set up involving aphids reared on the host plant, an artificial diet without a neuropeptide analogue, and an artificial diet containing the native CAPA neuropeptide.

Q: With “ASGL[βhL]AFPRV-NH2 (ASGL[β3hL]AFPRV-NH2; N-terminus assumed; SMILES CC(C)C[C@@H](CC(=O)N[C@@H](C)C(=O)N[C@@H](Cc1ccccc1)C(=O)N1CCC[C@H]1C(=O)N[C@@H](CCCNC(=N)N)C(=O)N[C@H](C(N)=O)C(C)C)NC(=O)[C@H](CC(C)C)NC(=O)CNC(=O)[C@H](CO)NC(=O)[C@H](C)N) [compound 2316]” as the substance, how does the “Dead (48 h)” value (Aphids; artificial diet supplemented with peptide, 48 h) read?
A: 86.0%

Q: What about the “Dead (72 h)” value (Aphids; artificial diet supplemented with peptide, 72 h) of the same substance?
A: 88.0%

Q: And the “Dead (96 h)” value (Aphids; artificial diet supplemented with peptide, 96 h)?
A: 90.0%

Q: And the “Dead (120 h)” value (Aphids; artificial diet supplemented with peptide, 120 h)?
A: 92.0%

Q: What about the “Dead (144 h)” value (Aphids; artificial diet supplemented with peptide, 144 h) of the same substance?
A: 92.0%

Q: And the “effect on mortality in the absence of additional stressors” value (Aphids)?
A: increase mortality in the absence of additional stressors

Q: What about the “effect on mortality in the absence of additional stressors” value (Aphids; listed as 2136) of the same substance?
A: increase mortality in the absence of additional stress conditions

Q: What does the source list for “FF[Aib]WG-NH2 [compound 2139, reference compound]”?
A: Documented effect on desiccation/starvation mortality (Macrosiphum rosae): non-significant survival curves; also recorded: No effect; LTime50 (h), test (Macrosiphum rosae): 31.7 | 29.8 h; Median IQR survival (h), test (Macrosiphum rosae): 29.5 ± 22.0 | 27.0 ± 26.0 h; Documented effect on desiccation/starvation mortality (Myzus persicae [1]): non-significant survival curves; also recorded: No effect; LTime50 (h), test (Myzus persicae [1]): 18.3 | 22.4 h; Median ± IQR survival (h), test (Myzus persicae [1]): 22.0 ± 16.5 | 25.0 ± 21.0 h

Q: What does the source list for “2Abf-Suc-FKPRL-NH2 ({2Abf-Suc}-FKPRL-NH2; reading uncertain; also: printed as 2Abf-Suc-FKPRL-NH2) [compound 1902]”?
A: Documented effect on desiccation/starvation mortality (Macrosiphum rosae): No effect; LTime50 (h), test (Macrosiphum rosae): 28.9 | 26.4 h; Median IQR survival (h), test (Macrosiphum rosae): 27.0 ± 17.3 | 25.0 ± 10.0 h; Documented effect on desiccation/starvation mortality (Myzus persicae [1]): No effect; LTime50 (h), test (Myzus persicae [1]): 22.2 | 21.8 h; Median ± IQR survival (h), test (Myzus persicae [1]): 24.0 ± 0 9.0 | 23.5 ± 7.0 h

Q: With “Native Kinin: native kinin neuropeptide based on the kinin structure of Drosophila melanogaster, synthesized by Cambridge Peptides (NSVVLGKKQRFHSWG; ends and bridges not checked) [reference compound]” as the substance, how does the “Age at 1st reproduction” value (Myzus persicae [2]) read?
A: 11.1 ± 0.5 days

Q: What about the Ave. daily fecundity (Myzus persicae [2]) of the same substance?
A: 1.6 ± 0.2 nymphs

Q: What about the “Days as reproducing adult” value (Myzus persicae [2]) of the same substance?
A: 5.9 ± 1.0

Q: What about the “Life span” value (Myzus persicae [2]) of the same substance?
A: 18.8 ± 1.3 days

Q: And the Lifetime fecundity (Myzus persicae [2])?
A: 9.7 ± 1.9 nymphs

Q: Which “Documented effect on desiccation/starvation mortality” value (Macrosiphum rosae) does the source give for “2Abf-Suc-FTPRI-NH2 ({2Abf-Suc}-FTPRI-NH2; reading uncertain; also: printed as 2Abf-Suc-FTPRI-NH2) [compound 1896]” here?
A: No effect

Q: What about the “LTime50 (h), test” value (Macrosiphum rosae) of the same substance?
A: 28.9 | 24.7 h

Q: What about the “Median IQR survival (h), test” value (Macrosiphum rosae) of the same substance?
A: 27.0 ± 17.3 | 23.0 ± 18.5 h

Q: And the “Documented effect on desiccation/starvation mortality” value (Myzus persicae [1])?
A: No effect

Q: And the “LTime50 (h), test” value (Myzus persicae [1])?
A: 22.2 | 24.8 h

Q: And the “Median ± IQR survival (h), test” value (Myzus persicae [1])?
A: 24.0 ± 0 9.0 | 25.0 ± 10.5 h

Q: For “[Aib]FF[Aib]WG-NH2 [compound 1728, reference compound]”, which “Documented effect on desiccation/starvation mortality” value (Macrosiphum rosae) is on record?
A: No effect

Q: And the “LTime50 (h), test” value (Macrosiphum rosae)?
A: 31.7 | 31.6 h

Q: And the “Median IQR survival (h), test” value (Macrosiphum rosae)?
A: 29.5 ± 22.0 | 24.0 ± 28.5 h

Q: What about the “Documented effect on desiccation/starvation mortality” value (Myzus persicae [1]) of the same substance?
A: No effect

Q: And the “LTime50 (h), test” value (Myzus persicae [1])?
A: 18.3 | 25.0 h

Q: What about the “Median ± IQR survival (h), test” value (Myzus persicae [1]) of the same substance?
A: 22.0 ± 16.5 | 26.0 ± 23.5 h

Q: Which results are given for “GANMGLYAFPRVamide (GANMGLYAFPRV-NH2) [Native Capa, reference compound]”?
A: Age at 1st reproduction (Myzus persicae [2]): 11.2 ± 0.2 days; Ave. daily fecundity (Myzus persicae [2]): 1.6 ± 0.1 nymphs; Days as reproducing adult (Myzus persicae [2]): 7.6 ± 0.6; Life span (Myzus persicae [2]): 21.3 ± 0.7 days; Lifetime fecundity (Myzus persicae [2]): 12.0 ± 1.2 nymphs

Q: Which results are given for “2Abf-Suc-FTPRV-NH2 ({2Abf-Suc}-FTPRV-NH2; reading uncertain; also: printed as 2Abf-Suc-FTPRV-NH2) [compound 2089]”?
A: Documented effect on desiccation/starvation mortality (Macrosiphum rosae): No effect; LTime50 (h), test (Macrosiphum rosae): 23.2 | 16.4 h; Median IQR survival (h), test (Macrosiphum rosae): 23.0 ± 17.0 | 17.0 ± 21.3 h; Documented effect on desiccation/starvation mortality (Myzus persicae [1]): No effect; LTime50 (h), test (Myzus persicae [1]): 10.9 | 13.0 h; Median ± IQR survival (h), test (Myzus persicae [1]): 11.0 ± 12.0 | 16.5 ± 10.3 h

Q: Which “Documented effect on desiccation/starvation mortality” value (Macrosiphum rosae) does the source give for 2Abf-Suc-FT[Hyp]RV-NH2 [compound 2123] here?
A: No effect

Q: And the “LTime50 (h), test” value (Macrosiphum rosae)?
A: 21.6 | 19.1 h

Q: What about the “Median IQR survival (h), test” value (Macrosiphum rosae) of the same substance?
A: 24.0 ± 11.0 | 16.0 ± 18.0 h

Q: And the “Documented effect on desiccation/starvation mortality” value (Myzus persicae [1])?
A: No effect

Q: And the “LTime50 (h), test” value (Myzus persicae [1])?
A: 24.3 | 21.1 h

Q: And the “Median ± IQR survival (h), test” value (Myzus persicae [1])?
A: 25.0 ± 13.5 | 21.0 ± 13.5 h
